Literature values, collected in patent US6271232A, “Collagenase-1 and stromelysin-1 inhibitors, pharmaceutical compositions comprising same and methods of their use” (Affymax Technologies, N.V., priority 1999, dated 2001).

Target: rabbit bone proteoglycanase
Settings: Delaisse et al. (1985)

IC50: 500 nM
Structure (SMILES): CNC(=O)[C@H](Cc1ccc(OC)cc1)NC(=O)[C@H](CC(C)C)NC(CCNC(=O)OCc1ccccc1)C(=O)O (stereo partly drawn) [N-[3-(benzyloxy-carbonyl)amino-1-carboxy-n-propyl]-L-leucyl-O-methyl-L-tyrosine, N-methylamide]
